“And” between values parts separate entries of the source, which are not always exact repeats. Equal entries are not always repeated.
Experiments:
[1] = system: SULT1A1; parameters: method as in Ma et al. 2003; conditions: ref Ma et al. 2003; cited from earlier work
[2] = system: SULT1E1; parameters: method as in Ma et al. 2003; conditions: ref Ma et al. 2003; cited from earlier work
[3] = system: SULT1A3; parameters: method as in Ma et al. 2003; conditions: ref Ma et al. 2003; cited from earlier work
[4] = molecular target: T1, SULT1A1*2 (Homo sapiens, UniProt P50225, R213H); test: Kinetics of 3-OH-BaP sulfonation by expressed SULT1A1*2; assay type: biochemical; conditions: expressed SULT1A1*2
T1 construct: purchased PanVera (Madison, WI); host or cells: Sf-9
T1 sequence (P50225 whole entry R213H): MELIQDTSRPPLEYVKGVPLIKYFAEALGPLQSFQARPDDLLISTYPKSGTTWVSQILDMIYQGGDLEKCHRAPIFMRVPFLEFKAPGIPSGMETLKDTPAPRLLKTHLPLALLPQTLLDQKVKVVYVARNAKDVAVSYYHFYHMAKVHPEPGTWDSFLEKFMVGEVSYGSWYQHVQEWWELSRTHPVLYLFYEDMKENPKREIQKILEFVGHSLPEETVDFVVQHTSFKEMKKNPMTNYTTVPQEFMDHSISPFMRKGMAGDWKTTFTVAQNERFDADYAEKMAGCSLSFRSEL
Text: (§1) The expression of human SULT1A1*1, SULT1A3, SULT1B1, and SULT1E1 in Escherichia coli has been described previously ([Dajani et al. 1998]; [Wang et al. 1998]). We grew E. coli cells containing the respective sulfotransferase genes as described previously ([Falany et al. 1990], [1994]), and prepared 100,000g supernatant fractions for use in inhibition studies and for partial purification of the SULT enzymes. We purchased expressed SULT1A1*2 cytosolic extract from PanVera (Madison, WI) and used it as supplied.
(§2) We determined SULT activity with 3-OH-BaP as substrate by a fluorimetric assay of BaP-3-SO4 product formation, as described previously ([Wang et al. 2004]). […] Duplicate tubes were prepared for each incubation condition. We examined the kinetics of sulfonation in three liver cytosol fractions by systematically varying the concentration of 3-OH-BaP or PAPS. When the variable substrate was 3-OH-BaP, we used 12 concentrations in the range from 0.035 to 2.00 μM, and the concentration of PAPS was kept constant at 10 μM. When we varied PAPS, we used 7 concentrations from 0.157 to 10.0 μM and kept the concentration of 3-OH-BaP constant at 0.100 μM.
We determined the kinetic parameters for 3-OH-BaP sulfonation by partially purified preparations of the cDNA-expressed SULT isozymes under incubation conditions similar to those used for liver cytosol. For SULT1A1*1 and -1A1*2, we used seven substrate concentrations in the range from 5 to 100 nM; for SULT1E1 we used […] 3-OH-BaP concentrations from 15.6 to 1,000 nM; and for SULT1A3 and 1B1 we used seven concentrations of 3-OH-BaP from 0.25 to 5.0 μM.
(§3) We calculated the enzyme kinetic parameters from studies with variable concentrations of 3-OH-BaP using nonlinear regression analysis and GraphPad 4.0 software (GraphPad Software, San Diego, CA). We selected the built-in Michaelis-Menten equation for most analyses. Where we found evidence of 3-OH-BaP substrate inhibition, we fit the data into an equation derived from a two-substrate model ([Zhang et al. 1998]): […]
(§4) This equation denoted the constant for binding of the first substrate (S) molecule as Km and the second substrate molecule as Ki. V1 is the maximum rate for the noninhibitory substrate concentration range, and V2 is the minimum rate in the inhibitory substrate concentration range

[5] = molecular target: HL cytosol sulfotransferase (Homo sapiens, UniProt P50225); test: Kinetics of 3-OH-BaP sulfonation by human liver cytosol (fluorimetric assay of BaP-3-SO4 formation); assay type: biochemical
HL cytosol sulfotransferase, sequence (P50225 whole entry): as the sequence (P50225 whole entry R213H) above, with H213R counted along it
Protocol: F.P. Guengerich (Vanderbilt University) kindly donated the samples of human liver, which were procured from organ donors ([Guengerich 1995]). We prepared liver cytosolic fractions from four livers by standard methods and stored aliquots at −80°C until use ([Wang et al. 2004]). We used three or four of these cytosol fractions in each experiment.
as §2, §3, §4

[6] = molecular target: HL cytosol 3-OH-BaP sulfotransferase (Homo sapiens, UniProt P50225); test: Kinetics of 3-OH-BaP sulfotransferase inhibition by 4′-OH-CB112 in HL cytosol; assay type: biochemical; conditions: 0 μM B5, mean ± SD n = 3
HL cytosol 3-OH-BaP sulfotransferase, sequence (P50225 whole entry): as the sequence (P50225 whole entry R213H) above, with H213R counted along it
Protocol: To study the type of inhibition produced by OH-PCBs, we used 4′-OH-CB112 (B5) as a model inhibitor. We prepared four sets of assay tubes containing HL cytosol and varying amounts of 3-OH-BaP from 35 to 150 nM: one set (control) contained no 4′-OH-CB112; the other sets contained 0.25 μM, 0.5 μM, or 1.0 μM 4′-OH-CB112.
We calculated the effects of OH-PCBs on 3-OH-BaP SULT activity as percentage inhibition compared with the controls without an inhibitor. We obtained IC50 values by fitting log OH-PCB concentration and percent control activity to a sigmoidal curve. We examined the relationships between IC50 and physicochemical properties of the OH-PCBs by linear correlation analysis. We calculated the inhibitory constant (Ki) from the kinetic studies with 4′-OH-CB112 by means of Dixon plots and plots of Km/Vmax against inhibitor concentration ([Cornish-Bowden 1995]).

[7] = molecular target: T2, SULT1E1 (Homo sapiens, UniProt P49888); test: Kinetics of 3-OH-BaP sulfonation by partially purified cDNA-expressed SULT1E1; assay type: biochemical
T2 construct: made in house; host or cells: Escherichia coli
T2 sequence (P49888 1-294): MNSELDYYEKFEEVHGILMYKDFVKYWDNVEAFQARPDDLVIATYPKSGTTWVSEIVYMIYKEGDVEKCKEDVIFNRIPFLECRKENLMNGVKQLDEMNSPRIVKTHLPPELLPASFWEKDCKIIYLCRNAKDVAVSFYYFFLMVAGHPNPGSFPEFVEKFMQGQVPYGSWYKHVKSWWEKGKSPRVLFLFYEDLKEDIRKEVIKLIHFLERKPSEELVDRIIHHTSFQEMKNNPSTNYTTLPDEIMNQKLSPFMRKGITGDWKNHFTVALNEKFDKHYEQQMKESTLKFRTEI
Text: as §1
(§5) The 100,000g supernatant fractions of SULT1A1*1, SULT1A3, SULT1B1, and SULT1E1 were partially purified by chromatographic methods ([Falany et al. 1990], [1994]). […] We analyzed active fractions by SDS-PAGE ([Laemmli 1970]) to assess the purity of each SULT enzyme. We stained the gels with Coomassie R-250 reagent and determined the percentage of protein present as each respective SULT enzyme by scanning densitometry.
(§6) We determined SULT activity with 3-OH-BaP as substrate by a fluorimetric assay of BaP-3-SO4 product formation, as described previously ([Wang et al. 2004]). […]
(§7) We determined the kinetic parameters for 3-OH-BaP sulfonation by partially purified preparations of the cDNA-expressed SULT isozymes under incubation conditions similar to those used for liver cytosol. […]

[8] = molecular target: T3, SULT1A3 (Homo sapiens, UniProt P0DMM9); test: Kinetics of 3-OH-BaP sulfonation by partially purified cDNA-expressed SULT1A3; assay type: biochemical; conditions: concentration range up to 5 μM
T3 construct: made in house; host or cells: Escherichia coli
T3 sequence (P0DMM9 whole entry): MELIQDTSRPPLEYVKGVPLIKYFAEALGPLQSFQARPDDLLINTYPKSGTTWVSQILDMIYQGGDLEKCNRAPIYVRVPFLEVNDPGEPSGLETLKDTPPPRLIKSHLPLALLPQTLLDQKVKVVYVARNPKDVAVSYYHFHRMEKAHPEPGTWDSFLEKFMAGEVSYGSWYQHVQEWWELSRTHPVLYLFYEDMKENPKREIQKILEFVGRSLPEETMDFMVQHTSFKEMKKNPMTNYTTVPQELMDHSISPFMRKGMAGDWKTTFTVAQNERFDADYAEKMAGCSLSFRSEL
Text: as §1, §5, §6, §7

[9] = molecular target: T4, SULT1A1*1 (Homo sapiens, UniProt P50225); test: Kinetics of 3-OH-BaP sulfonation by partially purified cDNA-expressed SULT1A1*1; assay type: biochemical
T4 construct: made in house; host or cells: Escherichia coli
Text: as §1, §5, §6, §7

[10] = molecular target: T5, SULT1B1 (Homo sapiens, UniProt O43704); test: Kinetics of 3-OH-BaP sulfonation by partially purified cDNA-expressed SULT1B1; assay type: biochemical; conditions: concentration range up to 5 μM
T5 construct: made in house; host or cells: Escherichia coli
T5 sequence (O43704 whole entry): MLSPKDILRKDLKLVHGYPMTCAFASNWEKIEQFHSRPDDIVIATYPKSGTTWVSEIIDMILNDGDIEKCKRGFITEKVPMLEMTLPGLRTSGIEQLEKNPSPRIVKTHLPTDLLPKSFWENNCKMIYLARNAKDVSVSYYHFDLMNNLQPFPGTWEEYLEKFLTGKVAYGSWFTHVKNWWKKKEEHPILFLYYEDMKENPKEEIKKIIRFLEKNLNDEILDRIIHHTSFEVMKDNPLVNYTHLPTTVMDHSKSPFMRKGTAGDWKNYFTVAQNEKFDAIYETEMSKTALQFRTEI
Text: as §1, §5, §6, §7

[11] = HL 2 cytosol (heterozygous SULT1A1*1/*2)
[12] = HL 3 cytosol (homozygous SULT1A1*2)

| Compound | Km [1] [µM] | Km [2] [µM] | Km [3] [µM] | V1 [4] | V2 [4] [pmol/min/mg protein] | Ki ([4]; substrate inhibition) [µM] | V1 ([5]; HL 1 cytosol (homozygous SULT1A1*1), maximum rate, noninhibitory substrate range) [pmol/min/mg protein] | V2 ([5]; HL 1 cytosol (homozygous SULT1A1*1), minimum rate, inhibitory substrate range) [pmol/min/mg protein] | V1 [5, 11] [pmol/min/mg protein] | V2 [5, 11] [pmol/min/mg protein] | V1 [5, 12] | V2 [5, 12] [pmol/min/mg protein] | 3-OH-BaP concentration resulting in a decrease in activity (substrate inhibition) ([5]; HL cytosol) [µM] | V1 ([5]; HL cytosol, mean ± SD of three livers) [pmol/min/mg protein] | Vmax (3-OH-BaP sulfotransferase activity) [6] [B pmol/min/mg protein] | 3-OH-BaP concentration showing substrate inhibition [7] [µM] | substrate inhibition [8] | 3-OH-BaP concentration showing substrate inhibition [9] [µM] | substrate inhibition [10] |
| --- | --- | --- | --- | --- | --- | --- | --- | --- | --- | --- | --- | --- | --- | --- | --- | --- | --- | --- | --- |
| Oc1ccc2ccc3cccc4ccc1c2c34 [1-hydroxypyrene] | 0.008 | 0.021 | 0.8 |  |  |  |  |  |  |  |  |  |  |  |  |  |  |  |  |
| Oc1ccc2ccc3c4ccccc4cc4ccc1c2c43 [Compound 3-OH-BaP, 3-hydroxybenzo[a]pyrene] |  |  |  | 4,400 pmol/min/mg protein | 290 | 0.16 | 121 | 2 | 93.0 | 38.50 | 94 pmol/min/mg protein and 94.4 pmol/min/mg protein | 31.0 | > 0.15 | 102 ± 15.8 | 69.1 ± 8.0 | > 0.15 | did not exhibit substrate inhibition | > 0.15 | did not exhibit substrate inhibition |

From article PMC1257591, “In Vitro Inhibition of Human Hepatic and cDNA-Expressed Sulfotransferase Activity with 3-Hydroxybenzo[a]pyrene by Polychlorobiphenylols” (Environmental Health Perspectives, 2005)
